Data reported in patent publication US10988523B2, “Modified lipidated Relaxin B chain peptides and their therapeutic use” (Sanofi, priority 2018, dated 2021).
*1 amine or outer side, *2 acyl side, *3 side chain or, on linkers, in order; H or OH if unused. Where a SMILES comes first, the peptide text is derived from it. Side-chain parts run from the residue outwards. [ ]: non-standard residue; d: D form. The star is where a group is joined. γGlu = O=C(O)[C@H](CCC(=O)[*:2])N[*:1]; Palmitoyl = CCCCCCCCCCCCCCCC(=O)*; Nle = CCCC[C@H](N)C(=O)O; AEEA = NCCOCCOCC(=O)O; Aib = CC(C)(N)C(=O)O

Target: T1, RXFP1 (Homo sapiens, UniProt Q9HBX9)
T1 construct: OVCAR5 cells expressing endogenous RXFP1; endogenous in cells; host or cells: OVCAR5 cells
T1 sequence (Q9HBX9 1-757): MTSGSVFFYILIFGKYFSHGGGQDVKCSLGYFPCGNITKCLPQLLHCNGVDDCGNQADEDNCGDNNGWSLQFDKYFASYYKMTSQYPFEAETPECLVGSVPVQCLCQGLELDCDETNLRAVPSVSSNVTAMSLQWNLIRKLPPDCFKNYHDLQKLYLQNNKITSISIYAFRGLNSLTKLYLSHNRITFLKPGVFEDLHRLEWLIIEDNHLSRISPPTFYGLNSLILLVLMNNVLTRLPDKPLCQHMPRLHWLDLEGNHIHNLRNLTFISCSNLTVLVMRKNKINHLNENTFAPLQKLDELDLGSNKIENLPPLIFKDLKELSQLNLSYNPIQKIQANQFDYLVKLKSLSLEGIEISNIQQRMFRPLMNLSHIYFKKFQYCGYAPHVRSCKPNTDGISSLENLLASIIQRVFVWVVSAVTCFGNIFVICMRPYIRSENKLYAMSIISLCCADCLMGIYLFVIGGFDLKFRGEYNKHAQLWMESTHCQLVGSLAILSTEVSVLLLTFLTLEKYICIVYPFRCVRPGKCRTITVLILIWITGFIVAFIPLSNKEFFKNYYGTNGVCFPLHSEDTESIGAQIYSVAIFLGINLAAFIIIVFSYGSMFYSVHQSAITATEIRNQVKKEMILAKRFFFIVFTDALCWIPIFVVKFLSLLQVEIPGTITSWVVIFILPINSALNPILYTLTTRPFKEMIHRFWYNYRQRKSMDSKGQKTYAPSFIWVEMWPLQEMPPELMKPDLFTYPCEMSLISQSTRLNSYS
Test: OVCAR5 cAMP assay (HTRF), RXFP1 agonist activity
Assay type: cell-based
Details: for Emax: OVCAR-5, maximal cAMP relative to H2-relaxin maximum (100%), read-out: EMax, OVCAR 5 cells (cAMP)
Outline: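 cAMP accumulation readout: after 1 mM IBMX for 40 min, endogenous-RXFP1 OVCAR5 cells got rising peptide concentrations without FCS, 30 min, 37° C, then lysis with HTRF cAMP reagents. Nonlinear regression gave EC50; Emax expressed relative to H2-relaxin maximum, same occasion.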

| EC50 (OVCAR5 cells, cAMP HTRF, read-out: EC50 (nM), OVCAR 5 cells (cAMP)) [nM] | Emax [%] | Compound |
| --- | --- | --- |
| 1 | 89 | CCCCCCCCCCCCCCCC(=O)N[C@@H](CCC(=O)NCCCC[C@H](NC(=O)CC[C@H](NC(=O)CC[C@H](NC(=O)COCCOCCNC(=O)COCCOCCNC(=O)COCCOCCNC(=O)COCCOCCNC(=O)[C@H](CCCCNC(C)=O)NC(=O)[C@H](CCCCN)NC(=O)[C@H](CCCNC(=N)N)NC(=O)C(C)(C)NC(=O)[C@H](CO)NC(=O)[C@H](Cc1c[nH]c2ccccc12)NC(=O)[C@@H](NC(=O)[C@H](CO)NC(=O)[C@H](CCCC)NC(=O)CNC(=O)[C@H](CCC(=O)O)NC(=O)C(C)(C)NC(=O)C(C)(C)NC(=O)[C@@H](NC(=O)[C@H](CCCCNC(C)=O)NC(=O)[C@H](C)NC(=O)[C@H](CCCNC(=N)N)NC(=O)[C@@H](NC(=O)[C@H](CCCCN)NC(=O)[C@H](CCC(=O)O)NC(=O)[C@H](CCCNC(=N)N)NC(=O)CNC(=O)[C@H](CCC(=O)O)NC(=O)[C@H](CC(C)C)NC(C)=O)C(C)C)[C@@H](C)CC)[C@@H](C)O)C(=O)O)C(=O)O)C(N)=O)C(=O)O [compound 116] (Ac-LEGREKVRAK(Ac)I[Aib][Aib]EG[Nle]STWS[Aib]RKK(Ac)[AEEA][AEEA][AEEA][AEEA][γGlu][γGlu]K([γGlu-Palmitoyl])-NH2) |
| – | 86 | CCCCCCCCCCCCCCCC(=O)N[C@@H](CCC(=O)NCCCC[C@H](NC(=O)CC[C@H](NC(=O)CC[C@H](NC(=O)COCCOCCNC(=O)COCCOCCNC(=O)COCCOCCNC(=O)[C@H](CCCCNC(C)=O)NC(=O)[C@H](CCCCN)NC(=O)[C@H](CCCNC(=N)N)NC(=O)C(C)(C)NC(=O)[C@H](CO)NC(=O)[C@H](Cc1c[nH]c2ccccc12)NC(=O)[C@@H](NC(=O)[C@H](CO)NC(=O)[C@H](CCCC)NC(=O)CNC(=O)[C@H](CCC(=O)O)NC(=O)C(C)(C)NC(=O)C(C)(C)NC(=O)[C@@H](NC(=O)[C@H](CCCCNC(C)=O)NC(=O)[C@H](C)NC(=O)[C@H](CCCNC(=N)N)NC(=O)[C@@H](NC(=O)[C@H](CCCCN)NC(=O)[C@H](CCC(=O)O)NC(=O)[C@H](CCCNC(=N)N)NC(=O)CNC(=O)[C@H](CCC(=O)O)NC(=O)[C@H](CC(C)C)NC(C)=O)C(C)C)[C@@H](C)CC)[C@@H](C)O)C(=O)O)C(=O)O)C(N)=O)C(=O)O [compound 117] (Ac-LEGREKVRAK(Ac)I[Aib][Aib]EG[Nle]STWS[Aib]RKK(Ac)[AEEA][AEEA][AEEA][γGlu][γGlu]K([γGlu-Palmitoyl])-NH2) |
| – | 86 | CCCCCCCCCCCCCCCC(=O)N[C@@H](CCC(=O)NCCCC[C@H](NC(=O)CC[C@H](NC(=O)CC[C@H](NC(=O)COCCOCCNC(=O)COCCOCCNC(=O)[C@H](CCCCNC(C)=O)NC(=O)[C@H](CCCCN)NC(=O)[C@H](CCCNC(=N)N)NC(=O)C(C)(C)NC(=O)[C@H](CO)NC(=O)[C@H](Cc1c[nH]c2ccccc12)NC(=O)[C@@H](NC(=O)[C@H](CO)NC(=O)[C@H](CCCC)NC(=O)CNC(=O)[C@H](CCC(=O)O)NC(=O)C(C)(C)NC(=O)C(C)(C)NC(=O)[C@@H](NC(=O)[C@H](CCC(N)=O)NC(=O)[C@H](C)NC(=O)[C@H](CCCNC(=N)N)NC(=O)[C@@H](NC(=O)[C@H](CCCCN)NC(=O)[C@H](CCC(=O)O)NC(=O)[C@H](CCCNC(=N)N)NC(=O)CNC(=O)[C@H](CCC(=O)O)NC(=O)[C@H](CC(C)C)NC(C)=O)C(C)C)[C@@H](C)CC)[C@@H](C)O)C(=O)O)C(=O)O)C(N)=O)C(=O)O [compound 118] (Ac-LEGREKVRAQI[Aib][Aib]EG[Nle]STWS[Aib]RKK(Ac)[AEEA][AEEA][γGlu][γGlu]K([γGlu-Palmitoyl])-NH2) |
